Where two headings read alike, the source gives them in different places.
Tests used:
[1] = 20 mg in 20 mL water, 25° C.
Experimental: The tests were conducted using Sartorius balances (Model SQP) and a pH meter (Brand: INESA, Model No. PHS-3E). 20 mg of the sample was weighed and transferred into a 20 mL volumetric flask with the remainder of the volume comprising water. The solution was mixed. The pH meter was calibrated with pH 4.0 and pH 6.8 standard buffer solutions at 25° C.

[2] = water, 25° C.
Experimental: The sample was dissolved and diluted to the volume with water and mixed well. The sample was left in an oven at 25° C., and samples were collected at 0 hours, 24 hours, 48 hours, 72 hours, 96 hours, and 120 hours. The diluent (mobile phase) used for the study was prepared by mixing about 1.36 g of potassium dihydrogen orthophosphate and 1.74 g of dipotassium hydrogen orthophosphate in a 1000 mL volumetric flask, and adjusting the pH to 3.0 with orthophosphoric acid. The appearance and purity of the samples were tested.

[3] = no humidity
Experimental: The samples were prepared in a brown glass bottle with the outer packing being an aluminum foil bag, and the samples were stored between layers of dessicant silica gels. The appearance, residual material, purity, TGA, and DSC were analyzed each month.

## epinephrine maleate
[1]
  pH: 4.48

## CNC[C@H](O)c1ccc(O)c(O)c1 [epinephrine malonate]
[2]; 0 hours
  Appearance: Colorless liquid
  Purity: 99.97%
[2]; 24 hours
  Appearance: Colorless liquid
  Purity: 99.79%
[2]; 48 hours
  Appearance: Colorless liquid
  Purity: 99.63%
[2]; 72 hours
  Appearance: Colorless liquid
  Purity: 99.51%
[2]; 96 hours
  Appearance: Colorless liquid
  Purity: 99.42%
[2]; 120 hours
  Appearance: Colorless liquid
  Purity: 99.34%
[3]; 30° C., month 0
  Appearance: Off-white
  DSC Offset: Offset: 104.25 °C
  DSC Onset: Onset: 98.8 °C
  Purity: 99.96%
  TGA: 0.32%
[3]; 30° C., month 1
  Appearance: Off-white
  DSC Offset: Offset: 103.99 °C
  DSC Onset: Onset: 98.80 °C
  Purity: 99.96%
  Residual Material (%): 100.31%
  TGA: 0.60%
[3]; 30° C., month 2
  Appearance: Off-white
  DSC Offset: Offset: 104.47 °C
  DSC Onset: Onset: 99.27 °C
  Purity: 99.96%
  Residual Material (%): 99.42%
  TGA: 0.19%
[3]; 30° C., month 3
  Appearance: Off-white
  DSC Offset: Offset: 104.23 °C
  DSC Onset: Onset: 98.72 °C
  Purity: 99.96%
  Residual Material (%): 99.44%
  TGA: 0.90%
[3]; 30° C., month 4
  Appearance: Off-white
  DSC Offset: Offset: 103.62 °C
  DSC Onset: Onset: 99.12 °C
  Purity: 99.73%
  Residual Material (%): 99.31%
  TGA: 0.69%
[3]; 30° C., month 5
  Appearance: Off-white
  DSC Offset: Offset: 103.92 °C
  DSC Onset: Onset: 98.71 °C
  Purity: 99.96%
  Residual Material (%): 100.22%
  TGA: 0.51%
[3]; 40° C., month 0
  Appearance: Off-white
  DSC Offset: Offset: 104.25 °C
  DSC Onset: Onset: 98.8 °C
  Purity: 99.96%
  TGA: 0.32%
[3]; 40° C., month 1
  Appearance: Off-white
  DSC Offset: Offset: 104.41 °C
  DSC Onset: Onset: 98.89 °C
  Purity: 99.97%
  Residual Material (%): 99.59%
  TGA: 0.16%
[3]; 40° C., month 2
  Appearance: Off-white
  DSC Offset: Offset: 104.05 °C
  DSC Onset: Onset: 98.78 °C
  Purity: 99.96%
  Residual Material (%): 100.11%
  TGA: 0.13%
[3]; 40° C., month 3
  Appearance: Off-white
  DSC Offset: Offset: 103.33 °C
  DSC Onset: Onset: 98.69 °C
  Purity: 99.96%
  Residual Material (%): 98.97%
  TGA: 0.51%
[3]; 40° C., month 5
  Appearance: Off-white
  DSC Offset: Offset: 103.83 °C
  DSC Onset: Onset: 98.49 °C
  Purity: 99.96%
  Residual Material (%): 99.68%
  TGA: 0.46%

Source: patent US11505521B2 (Biothea Pharma, Inc., priority 2018, dated 2022)
